Here are results for 1 compound from US11614434B2, “Genetic information analysis platform oncobox” (Obschestvo s ogranichennoi otvetstvennostyu “Oncobox”, priority 2018, dated 2023).

The test system of this data set is moderately differentiated intrahepatic cholangiocarcinoma. Put plainly: Clinical case: treatment of a patient with metastatic intrahepatic cholangiocarcinoma, drugs chosen by Oncobox rating. Type of data set: in vivo, human. An excerpt:
The patient was diagnosed in October 2015 with the following symptoms: moderate body weight loss, pain in right hypochondrium, loss of appetite and asthenia, with 70% Karnovsky index. […] The tumour was not surgically excised due to advanced stage, several intrahepatic masses and lung metastasis.
At first, total RNA was isolated from tumour sample and used to measure expression levels for 2,163 genes with CustomArray Inc. (USA) equipment using the microarray hybridization method. These 2,163 genes participate in major human signalling pathways associated with cancer, and also act as the molecular targets of anti-cancer medicinal products. Liver samples without pathological characteristics were taken from healthy donors and used as normal tissue controls. Using the Oncobox algorithm, the rating of target drugs was formed according to the BES values obtained (Table 2).

As to `CNC(=O)c1cc(Oc2ccc(NC(=O)Nc3ccc(Cl)c(C(F)(F)F)c3)cc2)ccn1` [Sorafenib], the “tumour status on MRI according to RECIST classification” value (Sorafenib from May 2016, MRI October 2016) is “stable disease”. For the same compound, the period till progression entry (Sorafenib from May 2016, progressing tumour on MRI January 2017) is on record as “about 6 months”. Moreover, the “symptom change after treatment” value (after treatment with Sorafenib) is “pain elimination in right hypochondrium”. Also, the adverse effects result (patient on Sorafenib) is “reddening, edema, pains in palms of the hands and bottoms of the feet”.
